Here are results for two molecules from paper PMC5712356, “A New Ala-122-Asn Amino Acid Change Confers Decreased Fitness to ALS-Resistant Echinochloa crus-galli” (Frontiers in Plant Science, 2017).

This experiment has as its system T1, ALS (acetolactate synthase; acetohydroxyacid synthase, AHAS; EC 2.2.1.6).
T1 construct: not purified; polyploid species, ALS gene copies not separated
In words: acetoin (Westerfeld) colorimetric ALS assay, […] nm, log-logistic fit. Format: biochemical, Echinochloa crus-galli. To be noted: sub-population S (no known ALS mutation); Na-pyruvate, MgCl2, TPP, FAD, pH 7.0, 37 °C, 90 min; partially purified leaf extract; read-out: I50.

Take `COc1cc(OC)nc(NC(=O)NS(=O)(=O)c2ncccc2C(=O)N(C)C)n1` [Nicosulfuron]: the IC50 is 19 nM.

As for `COCc1cnc(C2=NC(C)(C(C)C)C(=O)N2)c(C(=O)O)c1` (centres unmarked) [Imazamox], the IC50 was determined as 1740 nM.
